Data: paper PMC8116058, “De novo macrocyclic peptides dissect energy coupling of a heterodimeric ABC transporter by multimode allosteric inhibition” (eLife, 2021)
Positions of bridges follow the written chain, without caps; N, C: chain ends. Non-standard residues stand in square brackets, D forms with d. Residues, ends and D or L forms follow the SMILES beside them. *: point of attachment. 5FAM = O=C1OC2(c3ccc(O)cc3Oc3cc(O)ccc32)c2ccc(C(=O)*)cc21; βAla = NCCC(=O)O

Assays:
[1] = system: TmrAB; test: ATP binding by scintillation proximity assay (SPA); parameters: species or system Thermus thermophilus; settings: CP^B 1 µM
From the text: To elucidate the mechanistic basis for the inhibition of ATP hydrolysis and substrate transport, we investigated the effects of CPs on substrate binding. In the first approach, fluorescent CP^Fs were used as reporters in fluorescence polarization. […] In addition, we examined the impact of CP^Bs on ATP binding to TmrAB by scintillation proximity assays (SPA) (Figure 4C). […] Taken together, CPs are high-affinity allosteric inhibitors of TmrAB that leave ATP binding and substrate interaction largely unaffected, while impairing ATP hydrolysis and substrate translocation across the membrane.
Figure 4. […] (A) CP^Fs binding TmrAB is not affected by substrate peptide binding. […] For competition, C4^ATTO655 peptide (2 µM) or R9LQK peptide (200 µM) were added. (B) Binding of C4F peptide is not affected by CP^Bs. C4F peptides (50 nM) were mixed with TmrAB (4 µM), and fluorescence anisotropy was monitored as described in (A). For competition, C4^ATTO655 (10 µM) or CP^Bs (6 µM) were added. […] TmrAB (0.2 µM) were immobilized on SPA beads and incubated with ATP (3 μM, traced with ^3H-ATP) in the presence and absence of CP^Bs (1 µM each) for 30 min on ice. ATP binding was monitored by SPA. Background values were determined after releasing TmrAB complexes from the beads by adding imidazole (200 mM). The background signal in the absence of CP^Bs was set to 0 cpm. […] As this is an equilibrium experiment, this can be rationalized by the fact that CP13 stabilizes the ATP-bound OF conformer. Figure 4—source data 1. Source data for Figure 4.
DDM-solubilized TmrAB (0.2 µM) was incubated with ATP (2.8 μM), [2,5’,8-^3H(N)]-ATP (0.2 µM, ^3H-ATP, PerkinElmer), MgCl2 (3 mM), and CP^Bs (1 µM) for 30 min on ice. Copper-chelated SPA beads (PerkinElmer) were added to a final concentration of 5 mg/ml. Total binding was determined at 20°C in cpm mode (Wallac MicroBeta). Bound TmrAB complexes were eluted by adding 200 mM of imidazole, and background binding was determined. Data represent mean ± SD from three experiments.

[2] = system: wild-type TmrAB in liposomes; test: Single-liposome flow cytometry transport assay; type: biochemical, Thermus thermophilus; settings: for Peptides/liposome, time course: corrected by ADP background; for Peptides/liposome, two consecutive transport cycles: ADP background corrected
Procedure: To investigate whether an IF-to-OF transition and conformational arrest by CP13^F or CP14^F can still result in a productive substrate translocation, we followed peptide transport by wild-type TmrAB by single liposome-based flow cytometry (Figure 6A). […] CPs block multiple-turnover transport monitored by quantitative flow cytometry. (A) Single turnover by IF-to-OF switch monitored by single-liposome flow cytometry. […] Transport reactions were stopped by the addition of EDTA (10 mM). 100,000 proteoliposomes were analyzed by flow cytometry monitoring fluorescein and ATTO655 intensities. […] (C, D) Slowdown of multiple-turnover substrate transport. […] Transported peptides per liposomes were evaluated and corrected by ADP background levels as described in (B). Transport kinetics were fitted monoexponentially. […] (E) Two consecutive transport cycles. […] Transported peptides per liposome were evaluated as described in (B) and corrected by background levels in the presence of ADP. […] Figure 6-source data 1. Source data for Figure 6. Figure 6-figure supplement 1. Linear regression of quantitative flow cytometry analysis. (A) Gating strategy. Liposomes were selected according to side and forward scatter areas. Single liposomes were gated based on the height of forward scatter correlated to the area of forward scatter. […] Detergent was removed, and liposomes were extensively washed by centrifugation. […] Equal concentrations of fluorescein served as loading control (right). (C) Linear regression. […] Mean values ± SD (n = 3) are shown. Figure 6-figure supplement 1-source data 1. Source Data for Figure 6-figure supplement 1. [drawing 5] […] To confirm the conformational arrest of wild-type TmrAB by CP13^F and the slow turnover in the presence of CP14^F, we examined two successive cycles of conformational transitions by flow cytometry. […] Both steps were repeated to yield two consecutive cycles of conformational transitions. […] Taken together, the macrocyclic peptides CP13 and CP14 stabilize a pre-hydrolysis state, thus allowing a single-turnover translocation along the IF-to-OF switch. […] Transport reactions were stopped by adding EDTA (10 mM). […] For regression analysis, liposomes were loaded with increasing amounts of peptides to convert the fluorescence intensities into the number of peptides per liposome ([Stefan et al., 2020]). […] Equal amounts of carboxyfluorescein (Sigma-Aldrich) served as loading control. Detergent was removed by adding SM-2 Bio-beads (Bio-Rad) as detailed above. Liposomes were harvested for 30 min at 270,000 g and washed three times by centrifugation. Generally, 20,000-100,000 proteoliposomes were selected according to sideward and forward scatter areas. Single events were selected based on the height of forward scatter plotted against the area of forward scatter. […] Data represent mean ± SD from three experiments.

CC(C)[C@@H]1NC(=O)[C@H](Cc2ccccc2)NC(=O)[C@@H]2CCCN2C(=O)[C@H](CC(N)=O)NC(=O)[C@H](Cc2c[nH]c3ccccc23)NC(=O)[C@H](C(C)C)NC(=O)[C@H](Cc2ccc(O)cc2)NC(=O)[C@H](Cc2ccccc2)NC(=O)[C@@H](Cc2ccc(O)cc2)NC(=O)CSC[C@@H](C(=O)NCC(=O)N[C@@H](CO)C(=O)NCCC(=O)NCCC(=O)N[C@@H](CCCNC(=N)N)C(=O)N[C@@H](CCCCNC(=O)c2ccc3c(c2)C(=O)OC32c3ccc(O)cc3Oc3cc(O)ccc32)C(N)=O)NC(=O)[C@H](CCCCN)NC(=O)[C@H](Cc2ccccc2)NC1=O [CP14] ({CH2CO}-[dY]FYVWNPFVFKCGS[βAla][βAla]RK(5FAM)-NH2; thioether N-12; C-terminus assumed)
Effect on ATP binding to TmrAB ([1]; SPA): no effect on ATP binding | Signal, ATP binding ([1]; TmrAB 0.2 µM on SPA beads, ATP 3 µM traced with 3H-ATP, 30 min on ice, without CP 5.06): 5.10 cpm*10^3 | Signal, Background ([1]; after release of TmrAB from beads with imidazole 200 mM): 0.08 cpm*10^3 | Peptides/liposome, time course ([2]; 1 min at 45°C, CP^F 1 µM, C4^ATTO655 1 µM): 0.03 Peptides/liposome | Mean fluorescence intensity * 10^3, time course ([2]; 1 min at 45°C, CP^F 1 µM, C4^ATTO655 1 µM, without CP 2.29): 0.00 * 10^3 | Peptides/liposome, time course ([2]; 3 min at 45°C, CP^F 1 µM, C4^ATTO655 1 µM): 6.21 Peptides/liposome | Mean fluorescence intensity * 10^3, time course ([2]; 3 min at 45°C, CP^F 1 µM, C4^ATTO655 1 µM, without CP 10.49): 0.43 * 10^3 | Peptide transport in two successive IF-to-OF cycles ([2]; 5 min 45°C / 60 min 4°C, repeated): peptide transport was detected in both IF-to-OF switches | Peptides/liposome, time course ([2]; 5 min at 45°C, CP^F 1 µM, C4^ATTO655 1 µM): 14.91 Peptides/liposome | Mean fluorescence intensity * 10^3, time course ([2]; 5 min at 45°C, CP^F 1 µM, C4^ATTO655 1 µM, without CP 18.11): 1.02 * 10^3 | Peptides/liposome, time course ([2]; 10 min at 45°C, CP^F 1 µM, C4^ATTO655 1 µM): 24.30 Peptides/liposome | Mean fluorescence intensity * 10^3, time course ([2]; 10 min at 45°C, CP^F 1 µM, C4^ATTO655 1 µM, without CP 30.27): 1.67 * 10^3 | Peptides/liposome, time course ([2]; 20 min at 45°C, CP^F 1 µM, C4^ATTO655 1 µM): 38.29 Peptides/liposome | Mean fluorescence intensity * 10^3, time course ([2]; 20 min at 45°C, CP^F 1 µM, C4^ATTO655 1 µM, without CP 40.72): 2.63 * 10^3 | Peptides/liposome, time course ([2]; 40 min at 45°C, CP^F 1 µM, C4^ATTO655 1 µM): 48.57 Peptides/liposome | Mean fluorescence intensity * 10^3, time course ([2]; 40 min at 45°C, CP^F 1 µM, C4^ATTO655 1 µM, without CP 51.44): 3.34 * 10^3 | C4^ATTO655 peptides per liposome transported along a single IF-to-OF switch ([2]; CP^F 1 µM, 5 min 45°C, ~30 transport-competent TmrAB per liposome): ~ 30 peptides per liposome | Transported C4^ATTO655, Peptides/liposome ([2]; TmrAB 0.4 µM, C4^ATTO655 1 µM, ATP 3 mM, CP^F 1 µM, 5 min 45°C, ATP without CP 84.57, ADP 3.52): 38.81 Peptides/liposome | Peptide transport rate compared to control without CP^Fs ([2]; period of 40 min at 45°C): drastically reduced the peptide transport rate | Turnover of wild-type TmrAB over long-term incubation ([2]; period of 40 min at 45°C): slow turnover | Peptides/liposome, two consecutive transport cycles ([2]; time 0 min): 0.00 Peptides/liposome | Peptides/liposome, two consecutive transport cycles ([2]; time 5 min (after first 5 min at 45°C)): 36.27 Peptides/liposome | Peptides/liposome, two consecutive transport cycles ([2]; time 65 min (after 60 min at 4°C)): 37.68 Peptides/liposome | Peptides/liposome, two consecutive transport cycles ([2]; time 70 min (after second 5 min at 45°C)): 44.92 Peptides/liposome | Peptides/liposome, two consecutive transport cycles ([2]; time 130 min (after second 60 min at 4°C)): 48.07 Peptides/liposome
